pIC50: −log10 of the molar value. Active and inactive are the calls of the source. The rule behind the calls is not given here.
Tests used:
[1] = molecular target: T1, DNA topoisomerase 1 (Homo sapiens) (UniProt P11387); experiment: Induction of recombinant Top1 (unknown origin) assessed as 3'-[32P]-labeled 117-bp DNA oligonucleotide cleavage after 20 mins
T1 sequence (whole entry): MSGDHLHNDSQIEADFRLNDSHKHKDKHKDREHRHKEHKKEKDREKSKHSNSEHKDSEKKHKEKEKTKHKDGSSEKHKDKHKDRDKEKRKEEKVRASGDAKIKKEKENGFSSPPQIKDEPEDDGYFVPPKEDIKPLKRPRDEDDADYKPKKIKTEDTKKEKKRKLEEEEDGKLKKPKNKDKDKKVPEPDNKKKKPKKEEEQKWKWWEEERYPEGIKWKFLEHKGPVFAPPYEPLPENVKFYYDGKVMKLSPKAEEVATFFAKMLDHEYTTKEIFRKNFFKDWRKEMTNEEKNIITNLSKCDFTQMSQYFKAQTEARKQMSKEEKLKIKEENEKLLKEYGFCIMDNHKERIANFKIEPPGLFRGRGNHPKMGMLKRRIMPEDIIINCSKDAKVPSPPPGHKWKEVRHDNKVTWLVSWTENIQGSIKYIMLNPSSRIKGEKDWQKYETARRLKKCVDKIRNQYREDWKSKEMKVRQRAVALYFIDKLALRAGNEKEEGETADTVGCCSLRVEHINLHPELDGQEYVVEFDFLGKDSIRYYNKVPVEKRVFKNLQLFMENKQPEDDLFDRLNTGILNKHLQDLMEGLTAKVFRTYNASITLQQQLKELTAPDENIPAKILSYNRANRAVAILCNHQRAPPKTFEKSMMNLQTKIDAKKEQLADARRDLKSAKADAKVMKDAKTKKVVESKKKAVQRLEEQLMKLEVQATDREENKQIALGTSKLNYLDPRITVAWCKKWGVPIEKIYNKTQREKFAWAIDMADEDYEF

HeLa = experiment: cells; conditions: Homo sapiens, 48 h
Description: Cytotoxicity against human HeLa cells after 48 hrs by MTT assay

A549 = experiment: cells; conditions: Homo sapiens, A549, 48 h
Description: Cytotoxicity against human A549 cells after 48 hrs by MTT assay

HL-60 = experiment: cells; conditions: Homo sapiens, HL-60, 48 h
Description: Cytotoxicity against human HL60 cells after 48 hrs by MTT assay

Bos taurus = organism: Bos taurus; experiment: Inhibition of calf thymus Top1-mediated pBR322 DNA relaxation at 25 uM preincubated for 15 mins measured after 30 mins by ethidium bromide staining relative to camptothecin
CA46 = experiment: Cytotoxicity against human CA46 cells after 48 hrs by MTT assay; type: functional, cell-based; conditions: CA46, 48 h
[2] = molecular target: T1, DNA topoisomerase 1 (Homo sapiens); experiment: Inhibition of Top1 (unknown origin)-mediated unwinding of relaxed pBR322 DNA preincubated for 10 mins measured after 30 mins by UV transilluminator analysis
[3] = Inhibition of calf thymus Top1-mediated pBR322 DNA relaxation preincubated for 15 mins measured after 30 mins by ethidium bromide staining; set-up: species or system Bos taurus

Compound | Activity [1] | pIC50 (HeLa) | pIC50 (A549) | pIC50 (HL-60) | Top1 relaxation inhibition relative to camptothecin (%) (Bos taurus) | pIC50 (CA46) | inhibition [2] | pIC50 [3]
O=C1c2cccnc2C(=O)c2c1c(C(=O)OCCBr)c1ccccn21 | inactive |  |  |  |  |  |  | 
O=C1c2cccnc2C(=O)c2c1c(C(=O)OCCN1CCCCC1)c1ccccn21 | inactive | 5.66 | 6.28 | 6.49 | > 120% | 5.52 | Active | 
O=C1c2cccnc2C(=O)c2c1c(C(=O)NCCCN1CCCC1)c1ccccn21 | inactive | 5.74 | 5.92 | 5.72 | > 120% | 5.57 | Active | 
O=C1c2cccnc2C(=O)c2c1c(C(=O)NCCN1CCCC1)c1ccccn21 | inactive | 6.11 | 6.31 | 5.92 | > 120% | 4.82 | Active | 
CN1CCN(CCNC(=O)c2c3c(n4ccccc24)C(=O)c2ncccc2C3=O)CC1 | inactive | 6.00 | 6.36 | 5.55 | > 120% | 5.96 | Active | 
O=C1c2cccnc2C(=O)c2c1c(C(=O)NCCCN1CCOCC1)c1ccccn21 | inactive | 5.23 | 5.38 | 5.89 | > 120% | 5.96 | Active | 
CC[C@@]1(O)C(=O)OCc2c1cc1n(c2=O)Cc2cc3ccccc3nc2-1 [CAMPTOTHECIN] | inactive | 4.85 | 5.80 | 7.82 | 81% | 6.28 |  | 4.60
O=C1c2cccnc2C(=O)c2c1c(C(=O)N1CCCCC1)c1ccccn21 | inactive | 4.72 | 4.12 | 4.28 | < 40% | 4.89 |  | 
CN1CCN(C(=O)c2c3c(n4ccccc24)C(=O)c2ncccc2C3=O)CC1 | inactive | 4.21 | 4.52 | 5.24 | 40% | 5.59 |  | 
O=C1c2cccnc2C(=O)c2c1c(C(=O)OCCCN1CCOCC1)c1ccccn21 | inactive | 5.66 | 5.72 | 7.19 | > 120% | 5.85 | Active | 
CCNC(=O)c1c2c(n3ccccc13)C(=O)c1ncccc1C2=O | inactive |  |  |  |  |  |  | 
O=C1c2cccnc2C(=O)c2c1c(C(=O)OCCCN1CCCCC1)c1ccccn21 | inactive | 6.32 | 6.00 | 7.60 | > 120% | 6.05 | Active | 
O=C1c2cccnc2C(=O)c2c1c(C(=O)OCCCN1CCCC1)c1ccccn21 | inactive | 6.03 | 6.85 | 7.59 | > 120% | 5.96 | Active | 
O=C1c2cccnc2C(=O)c2c1c(C(=O)NCCN1CCCCC1)c1ccccn21 | inactive |  |  |  |  |  |  | 
CN(C)CCNC(=O)c1c2c(n3ccccc13)C(=O)c1ncccc1C2=O | inactive | 6.04 | 6.21 | 5.92 | > 120% | 5.23 | Active | 
CN1CCN(CCCNC(=O)c2c3c(n4ccccc24)C(=O)c2ncccc2C3=O)CC1 | inactive | 5.05 | 5.26 | 5.66 | > 120% | 5.42 | Active | 
O=C1c2cccnc2C(=O)c2c1c(C(=O)NCCCN1CCCCC1)c1ccccn21 | inactive | 5.92 | 5.48 | 5.89 | > 120% | 5.92 | Active | 
O=C1c2cccnc2C(=O)c2c1c(C(=O)NCCCc1ccccc1)c1ccccn21 | inactive | 4.54 | 4.82 | 4.12 | 40% | 4.85 |  | 
CN(C)CCCNC(=O)c1c2c(n3ccccc13)C(=O)c1ncccc1C2=O | inactive | 6.02 | 6.43 | 5.64 | > 120% | 5.92 | Active | 
O=C1c2cccnc2C(=O)c2c1c(C(=O)NCCn1ccnc1)c1ccccn21 | inactive | 5.24 | 5.64 | 5.64 | > 120% | 5.54 | inactive | 
CCOC(=O)c1c2c(n3ccccc13)C(=O)c1ncccc1C2=O | inactive | 4.66 | 5.85 | 6.52 | 81% | 5.43 | inactive | 
CCN(CC)C(=O)c1c2c(n3ccccc13)C(=O)c1ncccc1C2=O | inactive | 4.34 | 4.19 | 4.85 | < 40% | 4.82 |  | 
CCN(CC)CCCNC(=O)c1c2c(n3ccccc13)C(=O)c1ncccc1C2=O | inactive | 5.89 | 6.00 | 5.85 | > 120% | 5.92 | Active | 
O=C1c2cccnc2C(=O)c2c1c(C(=O)OCCN1CCOCC1)c1ccccn21 | inactive | 5.00 | > 8.00 | 7.47 | > 120% | 5.24 | inactive | 
O=C1c2cccnc2C(=O)c2c1c(C(=O)N1CCOCC1)c1ccccn21 | inactive | < 4.00 | 4.11 | 4.66 | < 40% | 4.89 |  | 
O=C1c2cccnc2C(=O)c2c1c(C(=O)NCCN1CCOCC1)c1ccccn21 | inactive | 5.80 | 6.05 | 5.92 | > 120% | 5.47 | Active | 
O=C1c2cccnc2C(=O)c2c1c(C(=O)NCCc1ccccc1)c1ccccn21 | inactive | 4.77 | 4.72 | 4.85 | < 40% | 5.10 |  | 
O=C1c2cccnc2C(=O)c2c1c(C(=O)OCCc1ccccn1)c1ccccn21 | inactive | 5.96 | 5.11 | 6.96 | 81% | 5.54 | inactive | 
O=C1c2cccnc2C(=O)c2c1c(C(=O)OCCCBr)c1ccccn21 | inactive |  |  |  |  |  |  | 
O=C1c2cccnc2C(=O)c2c1c(C(=O)OCCN1CCCC1)c1ccccn21 | inactive |  |  |  |  |  |  | 

— ChEMBL document CHEMBL3612043, “Synthesis and biological evaluation of 6-substituted indolizinoquinolinediones as catalytic DNA topoisomerase I inhibitors” (Eur J Med Chem, 2015)
